Experimental data published in publication PMC10636063, “Progesterone activation of β1-containing BK channels involves two binding sites” (Nature Communications, 2023).
Values joined by “and” are separate entries in the source; they are usually repeats but may differ in a detail not shown here. Equal values may be shown once. Read-outs that look alike come from different tables or passages of the source.

Legend:
[1] = molecular target: T1, BK β1 subunit (KCNMB1 product) (Rattus norvegicus, UniProt P97678); assay: Thermal unfolding (microscale thermophoresis, Prometheus) of purified wt β1; assay type: binding; conditions: for effect on thermal unfolding / binding: vs DMSO
T1 construct: FLAG (DYKDDDDK); made in house; host or cells: CHO cells, transient transfection, anti-flag immunoprecipitation
T1 sequence (P97678 1-191): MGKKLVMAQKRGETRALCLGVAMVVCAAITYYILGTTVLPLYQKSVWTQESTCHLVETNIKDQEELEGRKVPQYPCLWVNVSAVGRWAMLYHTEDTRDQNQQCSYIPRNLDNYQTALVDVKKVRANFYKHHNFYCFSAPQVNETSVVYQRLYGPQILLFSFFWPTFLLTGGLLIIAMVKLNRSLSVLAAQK
Excerpt: BK channel-forming slo1 cDNA (cbv1 isoform; AY330293) was cloned from rat cerebral artery SM cells, and inserted into pcDNA3.1 vector as described. BK β1 cDNA (KCNMB1 product; NP_011452; FJ154955) were isolated from rat cerebral artery SM cells and cloned as described. β4 cDNA (KCNMB4; NP_055320; AY028605) were generously provided by Dr. Ligia Toro. CHO cells were transiently transfected with cbv1 ± β1-, or β4-carrying pcDNA3.1 using X-tremeGENE HP (Sigma-Aldrich). Mutations to β1/4 cDNAs were conducted by Genscript, with sequences being confirmed to be >99% identical to KCNMB1 product; NP_011452 or β4 KCNMB4; NP_055320; respectively. β1/4 and mutant constructs were flag-tagged (DYKDDDDK-tag) by Genscript services for subsequent immunoprecipitation and use in microscale thermophoresis studies.
Wt β1, wt β4 and mutant constructs were purified by immunoprecipitation using Dynabeads Protein G Kit (10007D by Invitrogen) and following the manufacturer’s instructions. Rabbit polyclonal anti-flag antibody (10 µg; Abcam, Cat# ab205606, RRID:AB_2916341) was cross-linked with dynabeads. Transfected CHO cell lysate supernatant was divided into aliquots containing […] per column. Following precipitation, kit instructions for non-denaturing elutions were followed; one elution of 30 µl was collected for each column, and pH was adjusted to 7.5 using UltraPure 1 M Tris-HCI buffer pH 7.5 (cat# 15567027 by Fisher Scientific). PROG stock or vehicle control (DMSO) was added to the eluate to reach PROG final concentrations (0.004-40 µM), all dissolved within the same concentration of DMSO. Glass capillaries were prepared and loaded in triplicates into Prometheus (Nanotemper) and heated from 15° to 95 °C at a rate of 1°/min, the largest thermal scale available to run in the Nanotemper PR.therm-control software. The unfolding profile of a protein is a plot of its fluorescence signal against temperature. The protein is heated at a defined ramp over a specified temperature range. During the heating process, fluorescence is recorded at 330 and 350 nm. The resulting fluorescence ratio change is then analyzed for onset and inflection points. The temperature of onset and inflection is determined using built-in analysis function in Nanotemper PR.therm-control software. The onset of unfolding or aggregation is the temperature at which the channel conformation (unfolding or aggregation) process first starts. […] Onset and inflection points were validated by comparing the first-derivative variations between technical triplicates (high degrees of variations in the first derivative are shown in Supplementary Fig. 1b, c). CRC data obtained from microscale thermophoresis experiments were fitted to a Boltzmann function of the type: y=A1−A2/1+e^x−x0+A2 using Origin 2020 software (OriginLab; OriginLab Corporation).

[2] = system: pial arteries branching out of the MCA (C57BL/6J); assay: Cerebral artery diameter through cranial window in vivo; design: species or system mouse; conditions: for artery diameter, normalized to time 0 / artery diameter, normalized (PROG vs oxime comparison): individual replicates
Description: Eight-12 week-old male and female C57BL/6J mice were anesthetized with a mixture of xylazine/ketamine (12/100 mg per kg) and kept anesthetized for the duration of the experiment with subsequent ketamine doses (50 mg/kg of weight) as needed. A catheter was inserted into the carotid artery so that the infusion went straight to the brain rather than towards the thoracic cavity. An area of the skull was cleared of tissue and thinned to expose the branching arteries originating from the MCA on the side the catheter was inserted, above the zygomatic arch, between the ear and eye of the skull[19],[34]. The exposed arteries branching out from the MCA were monitored using a Leica MC170 HD microscope with a mounted camera (Leica M125 C) connected to a computer monitor. Drugs were diluted to their final concentration in sodium saline (0.9% NaCl) and administered via catheter at 0.1 ml/25 g of weight. Cranial window images before and after drug administration were acquired every 60 seconds for subsequent analysis.

[3] = Fig 7F, same values as Fig 7D time 7, female mice
[4] = Δ onset to inflection vs concentration

## CC(=O)C1CCC2C3CCC4=CC(=NOCC(=O)O)CCC4(C)C3CCC12C (centres unmarked) [PROG-oxime, progesterone 3-(O-carboxymethyl)oxime]
[1]
  effect on thermal unfolding / binding: actual binding to wt β1
[2]; Fig 7C, time 0, male mice
  artery diameter, normalized to time 0: 1 (4×) and 1.00
[2]; Fig 7C, time 1, male mice
  artery diameter, normalized to time 0: 0.9683 and 1.00 and 1.045 and 1.037 and 1.174
[2]; Fig 7C, time 2, male mice
  artery diameter, normalized to time 0: 0.9748 and 0.99 and 1.075 and 1.065 and 0.9672
[2]; Fig 7C, time 3, male mice
  artery diameter, normalized to time 0: 0.9521 and 0.88 and 1.045 and 0.8398 and 1.066
[2]; Fig 7C, time 4, male mice
  artery diameter, normalized to time 0: 0.9683 and 0.84 and 0.9351 and 0.8169 and 0.9018
[2]; Fig 7C, time 5, male mice
  artery diameter, normalized to time 0: 1.008 and 1.01 and 1.026 and 0.9472 and 0.9098
[2]; Fig 7C, time 6, male mice
  artery diameter, normalized to time 0: 1.041 and 0.92 and 0.9494 and 0.9176 and 1.063
[2]; Fig 7C, time 7, male mice
  artery diameter, normalized to time 0: 0.9184 and 0.90 and 0.9635 and 0.9259 and 0.9935
[2]; Fig 7C, time 8, male mice
  artery diameter, normalized to time 0: 0.9894 and 0.92 and 0.9405 and 0.9778 and 0.9794
[2]; Fig 7C, time 9, male mice
  artery diameter, normalized to time 0: 0.8438 and 0.91 and 1.0031 and 0.973 and 0.9169
[2]; Fig 7D, time 0, female mice
  artery diameter, normalized to time 0: 1.00 and 1 (4×)
[2]; Fig 7D, time 1, female mice
  artery diameter, normalized to time 0: 0.90 and 1.017 and 1.077 and 0.9108 and 0.9562
[2]; Fig 7D, time 2, female mice
  artery diameter, normalized to time 0: 0.98 and 0.9692 and 1.08 and 1.015 (2×)
[2]; Fig 7D, time 3, female mice
  artery diameter, normalized to time 0: 0.96 and 0.8809 and 1.0998 and 0.9303 and 1.006
[2]; Fig 7D, time 4, female mice
  artery diameter, normalized to time 0: 0.71 and 0.9764 and 0.9876 and 0.9569 and 0.8502
[2]; Fig 7D, time 5, female mice
  artery diameter, normalized to time 0: 0.75 and 0.9574 and 1.009 and 0.7872 and 0.892
[2]; Fig 7D, time 6, female mice
  artery diameter, normalized to time 0: 0.76 and 0.8573 and 1.009 and 0.8606 and 0.8869
[2]; Fig 7D, time 7, female mice
  artery diameter, normalized to time 0: 0.82 and 0.8681 and 0.9667 and 0.8496 and 0.8082
[2]; Fig 7D, time 8, female mice
  artery diameter, normalized to time 0: 0.87 and 0.8872 and 1.0207 and 0.8807 and 0.7534
[2]; Fig 7D, time 9, female mice
  artery diameter, normalized to time 0: 0.74 and 0.8893 and 0.9136 and 0.9444 and 0.8332
[2]; Fig 7E, same values as Fig 7C time 7, male mice
  artery diameter, normalized (PROG vs oxime comparison): 0.8986
[2]; [3]
  artery diameter, normalized (PROG vs oxime comparison): 0.97 and 0.85 and 0.81

## CC(=O)[C@H]1CC[C@H]2[C@@H]3CCC4=CC(=O)CC[C@]4(C)[C@H]3CC[C@]12C [PROG, Progesterone]
[1]
  concentrations optimal to bind β1 as determined by MST: 4 to 10 µM
  effect on thermal unfolding / binding: decreases the difference in delta between the onset inflection events
[1]; 0.004 µM PROG, individual records (Fig 1B)
  delta (Δ) of onset to inflection point: 5.26 and 13.2518 and 6.093 and 5.155 and 14.4223 and 5.701 and 4.973 and 10.2833 and 5.781 and 6.3298 and 7.116
[1]; 0.04 µM PROG, individual records (Fig 1B)
  delta (Δ) of onset to inflection point: 5.943 and 2.008 and 8.93 and 4.708 and 3.29 and 2.039 and 5.415 and 2.123 and 6.078 and 9.405 and 14.8911 and 5.538
[1]; 0.4 µM PROG, individual records (Fig 1B)
  delta (Δ) of onset to inflection point: 3.821 and 6.41 and 2.29 and 0.9082 and 1.393 and 3.976 and 4.647 and 6.669 and 3.779 and 6.772
[1]; 1.3 µM PROG, individual records (Fig 1B)
  delta (Δ) of onset to inflection point: 10.9265 and 4.989 and 3.478 and 3.054 and 2.195 and 4.0816
[1]; 4 µM PROG, individual records (Fig 1B)
  delta (Δ) of onset to inflection point: 4.355 and 17.5013 and 19.981 and 4.864 and 5.088 and 8.156 and 15.523 and 3.088 and 7.882 and 12.3542 and 0.9184 and 8.919 and 6.947 and 9.668
[1]; 10 µM PROG, individual records (Fig 1B)
  delta (Δ) of onset to inflection point: 12.73 and 36.72 and 4.56 and 4.587 and 4.664 and 11.45 and 5.307 and 5.645 and 4.368 and 3.818
[1]; 10 μM PROG, individual records (Fig 1C, SFig1A)
  delta (Δ) of onset to inflection point: 9.668 and 4.355 and 17.5013 and 19.981 and 4.864 and 5.088 and 8.156 and 15.523 and 3.088 and 7.882 and 12.3542 and 0.9184 and 8.919 and 6.947
[1]; 40 µM PROG, individual records (Fig 1B)
  delta (Δ) of onset to inflection point: 6.851 and 14.1513 and 13.0079 and 8.574 and 9.969 and 3.1593 and 5.59 and 5.656
[1]; [4]
  high-affinity binding process: concentration at maximum: 0.4 to 1 µM
  low-affinity binding process: concentration at maximum: 10 µM
[1]; Δ onset to inflection vs concentration, read-out: high-affinity binding process: 50% value
  EC50: 0.04 µM
[1]; Δ onset to inflection vs concentration, read-out: low-affinity binding process: 50% value
  EC50: ~2.2 µM
[2]; 10 μM infused via carotid artery, both sexes
  in vivo action on MCA branches: vasodilation
[2]; Fig 7C, time 4, male mice
  artery diameter, normalized to time 0: 1.09 (2×) and 1.035 and 1.058 and 0.9438
[2]; Fig 7C, time 5, male mice
  artery diameter, normalized to time 0: 1.016 and 1.1 and 0.9912 and 1.082 and 0.9491
[2]; Fig 7C, time 6, male mice
  artery diameter, normalized to time 0: 1.051 and 1.116 and 1.012 and 1.08 and 1.037
[2]; Fig 7C, time 7, male mice
  artery diameter, normalized to time 0: 1.112 and 1.049 and 1.05 and 1.107 and 1.058
[2]; Fig 7C, time 8, male mice
  artery diameter, normalized to time 0: 1.011 and 1.1193 and 1.034 and 1.1 and 1.095
[2]; Fig 7C, time 9, male mice
  artery diameter, normalized to time 0: 1.079 and 1.105 and 1.031 and 1.086 and 1.089
[2]; Fig 7C, time 10, male mice
  artery diameter, normalized to time 0: 1.09 and 1.053 and 0.9685 and 1.068 and 1.048
[2]; Fig 7C, time 11, male mice
  artery diameter, normalized to time 0: 1.108 and 1.043 and 1.018 and 1.059 and 1.07
[2]; Fig 7C, time 12, male mice
  artery diameter, normalized to time 0: 0.9973 and 1.002 and 1.105 and 1.107 and 1.084
[2]; Fig 7C, time 13, male mice
  artery diameter, normalized to time 0: 1.13 and 1.0049 and 1.077 and 1.135 and 1.0321
[2]; Fig 7D, time 4, female mice
  artery diameter, normalized to time 0: 1.137 and 1.058 and 0.95 and 1.071 and 1.184
[2]; Fig 7D, time 5, female mice
  artery diameter, normalized to time 0: 0.9598 and 1.079 and 0.97 and 0.997 and 1.229
[2]; Fig 7D, time 6, female mice
  artery diameter, normalized to time 0: 1.069 and 1.14 and 1.01 and 1.116 and 1.159
[2]; Fig 7D, time 7, female mice
  artery diameter, normalized to time 0: 1.131 and 1.157 and 1.04 and 1.012 and 1.149
[2]; Fig 7D, time 8, female mice
  artery diameter, normalized to time 0: 1.128 and 1.058 and 1.05 and 1.074 and 1.104
[2]; Fig 7D, time 9, female mice
  artery diameter, normalized to time 0: 1.1 and 1.083 and 1.05 and 1.009 and 1.17
[2]; Fig 7D, time 10, female mice
  artery diameter, normalized to time 0: 1.137 and 1.135 and 1.10 and 1.112 and 1.096
[2]; Fig 7D, time 11, female mice
  artery diameter, normalized to time 0: 1.0383 and 1.014 and 1.12 and 1.119 and 1.133
[2]; Fig 7D, time 12, female mice
  artery diameter, normalized to time 0: 1.097 and 0.9908 and 1.08 and 1.129 and 1.16
[2]; Fig 7D, time 13, female mice
  artery diameter, normalized to time 0: 1.0971 and 1.058 and 1.25 and 1.0807 and 1.024
[2]; [3]
  artery diameter, normalized (PROG vs oxime comparison): 1.043
